Active and inactive are the calls of the source. No cut-off for these calls is given here.
Key:
[1] = Inhibition of yeast alpha-glucosidase using PNP glycoside as substrate after 30 mins by spectrophotometry; set-up: species or system Saccharomyces cerevisiae
[2] = Non competitive inhibition of yeast alpha-glucosidase using PNP glycoside as substrate preincubated for 30 mins by Lineweaver-Burk plot analysis; set-up: species or system Saccharomyces cerevisiae
Saccharomyces cerevisiae [3] = experiment: Non competitive inhibition of yeast alpha-glucosidase using PNP glycoside as substrate at 25.4 uM preincubated for 30 mins by Lineweaver-Burk plot analysis
Saccharomyces cerevisiae [4] = experiment: Ratio of 1,3-dihydroxy-9H-xanthen-9-one IC50 to compound IC50 for yeast alpha-glucosidase
Saccharomyces cerevisiae [5] = experiment: Non competitive inhibition of yeast alpha-glucosidase using PNP glycoside as substrate at 15.3 uM preincubated for 30 mins by Lineweaver-Burk plot analysis
Saccharomyces cerevisiae [6] = experiment: Ratio of 1,3,6,8-tetrahydroxy-9H-xanthen-9-one IC50 to compound IC50 for yeast alpha-glucosidase
Saccharomyces cerevisiae [7] = experiment: Ratio of 1,3,6-trihydroxy-9H-xanthen-9-one IC50 to compound IC50 for yeast alpha-glucosidase
Saccharomyces cerevisiae [8] = experiment: Ratio of 1,3-dihydroxy-7-methyl-9H-xanthen-9-one IC50 to compound IC50 for yeast alpha-glucosidase
Saccharomyces cerevisiae [9] = experiment: Non competitive inhibition of yeast alpha-glucosidase using PNP glycoside as substrate at 34.8 uM preincubated for 30 mins by Lineweaver-Burk plot analysis

Row | Compound | IC50 [1] [µM] | also measured
1 | O=c1c2ccccc2oc2cc(O)c(-c3c(O)ccc4ccccc34)c(O)c12 | 47.7 | Ratio IC50 (Saccharomyces cerevisiae [4]): 2
2 | O=c1c2ccccc2oc2c(-c3c(O)ccc4ccccc34)c(O)c(-c3c(O)ccc4ccccc34)c(O)c12 | 10.1 | –
3 | Cc1ccc2oc3cc(O)c(-c4c(O)ccc5ccc(O)cc45)c(O)c3c(=O)c2c1 | 112 | –
4 | O=c1c2c(O)cc(O)cc2oc2cc(O)c(-c3c(O)ccc4ccccc34)c(O)c12 | 8.1 | Ki [2]: 29.2 µM; inhibition (Saccharomyces cerevisiae [5]): Active; Ratio IC50 (Saccharomyces cerevisiae [6]): 2
5 | O=c1c2ccc(O)cc2oc2cc(O)c(-c3c(O)ccc4ccc(O)cc34)c(O)c12 | 47.6 | –
6 | Cc1ccc2oc3cc(O)cc(O)c3c(=O)c2c1 | > 200 | –
7 | Cc1ccc2oc3cc(O)c(-c4c(O)ccc5ccccc45)c(O)c3c(=O)c2c1 | 26.5 | Ratio IC50 (Saccharomyces cerevisiae [8]): 2
8 | O=c1c2c(O)cc(O)cc2oc2cc(O)cc(O)c12 | 17.2 | Ki [2]: 62.8 µM; inhibition (Saccharomyces cerevisiae [9]): Active

Continued, in another order:

Row | IC50 [1] [µM] | Compound | also measured
9 | 161 | O=c1c2ccccc2oc2cc(O)cc(O)c12 | –
10 | 6.2 | O=c1c2ccc(O)cc2oc2c(-c3c(O)ccc4ccccc34)c(O)c(-c3c(O)ccc4ccccc34)c(O)c12 | –
11 | 17.4 | O=c1c2c(O)cc(O)cc2oc2cc(O)c(-c3c(O)ccc4ccc(O)cc34)c(O)c12 | Ki [2]: 50.9 µM; inhibition (Saccharomyces cerevisiae [3]): Active
12 | 10.5 | O=c1c2ccc(O)cc2oc2cc(O)c(-c3c(O)ccc4ccccc34)c(O)c12 | Ratio IC50 (Saccharomyces cerevisiae [7]): 2
13 | 75.4 | O=c1c2ccccc2oc2cc(O)c(-c3c(O)ccc4ccc(O)cc34)c(O)c12 | –
14 | 6.4 | Cc1ccc2oc3c(-c4c(O)ccc5ccccc45)c(O)c(-c4c(O)ccc5ccccc45)c(O)c3c(=O)c2c1 | –
15 | 40 | OC[C@H]1NC[C@H](O)[C@@H](O)[C@@H]1O [DUVOGLUSTAT] | –
16 | 41.5 | O=c1c2ccc(O)cc2oc2cc(O)cc(O)c12 | –

Reference: ChEMBL document CHEMBL1821558, “Toward potent α-glucosidase inhibitors based on xanthones: a closer look into the structure-activity correlations” (Eur J Med Chem, 2011)
